Results published in patent US20080027098A1, “Derivatives of alpha-phenylthiocarboxylic and alpha-phenyloxy-carboxylic acids useful for the treatment of diseases responding to PPARalpha activation” (SIGMA-TAU INDUSTRIE FARMACEUTICHE RIUNITE S.p.A., priority 2002, published 2008).

Columns and labels:
db/db mice = assay: Increase in HDL-cholesterol levels in db/db mice; type: in vivo; conditions: further experiment, oral twice daily 14 days, dose equimolar to 25 mg/kg of ST2195, 8 hours after last treatment
Description: Increase in HDL-Cholesterol Levels in db/db Mice
In this experiment db/db mice were used in which PPARα expression is above normal (Memon et al., Endocrinology 2000, 4021-4031) and HDL-cholesterol levels are substantially elevated (Silver et al., J Biol Chem 1999, 274: 4140-4146).
The C57BL[KsJ db/db mice were acclimatised for one week in standard conditions (22±2° C.; 55±15% humidity; 15-20 air changes/hour; 12 hours light/darkness cycle with light from 7.00 a.m. to 7 p.m.) with a standard 4 RF21 diet (Mucedola). Blood samples were taken in post-absorption conditions (fasting from 8.30 a.m. to 4.30 p.m.) from the caudal vein with the aid of a Jelco 22G catheter (Johnson and Johnson). Glucose, insulin, triglyceride, cholesterol, free fatty acid and urea levels were checked in plasma for a homogeneous distribution of the mice in the treatment groups.
At the beginning of treatment the animals' body weight was checked and arrangements were made to monitor their water and feed consumption. […]
The compound tested, obtained as described in example 4 (ST 1929) was administered at the dose of 24 mg/kg in 10 ml/kg of vehicle (1% CMC containing Tween 80 0.5% in deionized H2O).
The other compounds tested were also administered at a dose equivalent to that in example 4.
Ciprofibrate, a known PPARα agonist (Varanasi et al., J Biol Chem 1996, 271: 2147-2155; Latruffe et al. Cell Biochem Biophys 2000, 32 Spring: 213-220) was administered at the dose of 20 mg/kg (Dwivedi et al., Toxicol Pathol 1989, 17: 16-26; Qi et al., Proc Natl Acad Sci USA 1999, 96: 1585-1590).
The animals were sacrificed (by decapitation) in conditions of post-absorption (fasting from 9.30 a.m. to 4.30 p.m.) 7 hours after the last treatment. The levels of a number of important lipid and carbohydrate metabolism parameters were determined in the serum.
The HDL-cholesterol levels were measured by treating the serum with phosphotungstic-acid-based precipitating reagent (ABX Diagnostics) which removes the chylomicrons, very low density and low density lipoproteins and determining the HDL-cholesterol levels in the supernatant with the aid of the Cholesterol Kit (ABX Diagnostics) and the Cobas Mira S Autoanalyzer (Roche).
In a further experiment, where the above reported ST2195 was used as reference compound, db/db mice were treated orally twice daily (8.30 a.m. and 6.30 p.m.) for 14 days with the test items (equimolar to 25 mg/kg of ST2 195) giving the following results reported in Table 3: […]

[1] = tested on: high-cholesterol diet-fed CD-1 mice; assay: Hypolipidemic activity in high-cholesterol diet-fed CD-1 mice; type: in vivo; conditions: 16 days
Description: High-Cholesterol Diet-Fed CD-1 Mice
ST2518, fenofibrate, rosiglitazone and pioglitazone (PPARγ agonists) were administered by gavage, for 16 days, to CD-1 mice fed with high-cholesterol diet, and plasma parameters were evaluated in post-absorptive state.

[2] = tested on: standard diet-fed c57bl/6j mice; assay: Hypolipidemic activity in standard diet-fed c57bl/6j mice; type: in vivo; conditions: for Triglycerides (plasma): 15 days, post-absorptive state, control 53.8 ± 4.2
Description: Standard Diet-Fed c57bl/6j Mice
ST2518 was evaluated in comparison with fenofibrate also in c57b1/6j mice fed with standard diet (Table 5).

hAPO A I transgenic mice = assay: Plasma lipid parameters in hAPO A I transgenic mice; type: in vivo; conditions: 16 days
Description: ST2518, fenofibrate and rosiglitazone were administered by gavage for 16 days, and plasma (p) parameters were evaluated in post-absorptive state.

Compound: CC(C)(Sc1cccc(OCCc2ccc(Cl)cc2)c1)C(=O)O [ST2518, 2-[3-[2-(4-chlorophenyl)ethoxy]phenylthio]-2-methylpropanoic acid]
- Increase in HDL-cholesterol levels (%) (db/db mice): +46Δ %
- P-Cholesterol ([1]; 25 mg/Kg/bid by gavage, post-absorptive state, control 350 ± 28): 200 ± 29 Δ mg/dL
- effect on plasma-cholesterol and triglyceride levels (in words) ([1]; gavage, high-cholesterol diet): significantly reduced plasma-cholesterol and triglyceride levels
- Triglycerides (plasma) ([2]; 5 mg/kg/bid by gavage): 29.4 ± 3.0 Δ mg/dl
- Triglycerides (plasma) ([2]; 15 mg/kg/bid by gavage): 29.5 ± 3.4 Δ mg/dl
- Triglycerides (plasma) ([2]; 25 mg/kg/bid by gavage): 24.6 ± 2.0 Δ mg/dl
- effect on plasma triglyceride levels (in words) ([2]; treatment for 15 days, standard diet): significantly reduced plasma triglyceride levels to a higher extent than fenofibrate and muraglitazar
- P-triglycerides (hAPO A I transgenic mice; 25 mg/kg/bid by gavage, post-absorptive state, control 75 ± 6): 36 ± 3 δ mg/dl
- P-hdl-cholesterol (hAPO A I transgenic mice; 25 mg/kg/bid by gavage, post-absorptive state, control 163 ± 6): 252 ± 18 δ mg/dl
- effect on HDL-cholesterol (in words) (hAPO A I transgenic mice; gavage): increased HDL-cholesterol more than fenofibrate
- effect on triglyceride levels (in words) (hAPO A I transgenic mice; gavage): effective in reducing triglyceride levels
- melting point: 105 to 106 °C
